The values below come from paper PMC11148373, “Cubeb (Piper cubeba L.): nutritional value, phytochemical profiling and dermacosmeceutical properties” (Frontiers in Nutrition, 2024).

In the assay the target is T1, elastase from porcine pancreas (Sus scrofa, UniProt P00772).
T1 construct: gene CELA1; commercial native porcine pancreatic elastase (Sigma Aldrich)
As to the kind of experiment: N-Succinyl-Ala-Ala-Ala-p-nitroanilide hydrolysis, absorbance at […] nm. The class given is biochemical. The conditions noted are these: read-out: IC50 (μg/mL) / Elastase (converted).

T1 sequence (P00772 27-266): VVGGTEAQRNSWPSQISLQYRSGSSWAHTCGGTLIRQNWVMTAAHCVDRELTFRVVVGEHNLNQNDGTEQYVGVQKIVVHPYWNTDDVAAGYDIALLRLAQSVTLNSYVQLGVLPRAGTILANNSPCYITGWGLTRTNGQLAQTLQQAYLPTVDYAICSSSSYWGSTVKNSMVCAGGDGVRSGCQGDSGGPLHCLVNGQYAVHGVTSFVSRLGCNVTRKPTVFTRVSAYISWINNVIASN

For `O=C(O[C@@H]1Cc2c(O)cc(O)cc2O[C@@H]1c1cc(O)c(O)c(O)c1)c1cc(O)c(O)c(O)c1` [Epigallocatechin gallate], the IC50 is 505 µM.
